{"source": "paper PMC12423892", "about": "(ACS Omega, 2025)", "key": {"MCF-7": {"test_system": "MCF-7", "experiment": "In vitro antiproliferative MTT assay, MCF-7", "format": "cell-based", "settings": "Homo sapiens, MCF7, read-out: IC50 MCF-7"}, "HCT-116": {"test_system": "HCT-116", "experiment": "In vitro antiproliferative MTT assay, HCT-116", "format": "cell-based", "settings": "Homo sapiens, HCT-116, read-out: IC50 HCT-116"}, "HepG-2": {"test_system": "HepG-2", "experiment": "In vitro antiproliferative MTT assay, HepG-2", "format": "cell-based", "settings": "Homo sapiens, HepG2, read-out: IC50 HepG-2"}, "HepG2 cells [1]": {"test_system": "HepG2 cells", "experiment": "Apoptosis analysis, Annexin V/PI, HepG2", "format": "cell-based, human", "settings": "at IC50, 72 h, single measurement"}, "HepG2 cells [2]": {"test_system": "HepG2 cells", "experiment": "Cell cycle analysis, flow cytometry, HepG2", "format": "cell-based, human", "settings": "treated at IC50 (3a 4.82, 6 3.33, 15 3.31 μM), 72 h, single measurement"}, "WI-38": {"test_system": "WI-38", "experiment": "Cytotoxicity against normal WI-38 cells", "format": "cell-based", "settings": "Homo sapiens, WI-38, read-out: IC50 WI-38"}}, "data": [{"smiles": "CC[C@]1(O)C[C@@H]2CN(CCc3c([nH]c4ccccc34)[C@@](C(=O)OC)(c3cc4c(cc3OC)N(C)[C@H]3[C@@](O)(C(=O)OC)[C@H](OC(C)=O)[C@]5(CC)C=CCN6CC[C@]43[C@@H]65)C2)C1", "note": "[vinblastine]", "values": [{"measurement": "IC50", "setting": "MCF-7", "result": "5.83 ± 0.61", "unit": "µM"}, {"measurement": "IC50", "setting": "HCT-116", "result": "3.21 ± 0.21", "unit": "µM"}, {"measurement": "IC50", "setting": "HepG-2", "result": "7.35 ± 0.52", "unit": "µM"}]}, {"smiles": "C/C(=N\\N)c1ccc(S(=O)(=O)N2CCC(C)CC2)cc1", "note": "[Compound 12, (E)-1-((4-(1-hydrazineylideneethyl)phenyl)sulfonyl)-4-methylpiperidine]", "values": [{"measurement": "IC50", "setting": "MCF-7", "result": "96.1 ± 5.23", "unit": "µM"}, {"measurement": "IC50", "setting": "HCT-116", "result": "87.3 ± 6.2", "unit": "µM"}, {"measurement": "IC50", "setting": "HepG-2", "result": "59.6 ± 3.3", "unit": "µM"}]}, {"smiles": "COc1cccc2c1C(=O)c1c(O)c3c(c(O)c1C2=O)C[C@@](O)(C(=O)CO)C[C@@H]3O[C@H]1C[C@H](N)[C@H](O)[C@H](C)O1", "note": "[doxorubicin]", "values": [{"measurement": "apoptosis early", "setting": "HepG2 cells [1]", "result": 7.43, "unit": "%"}, {"measurement": "apoptosis late", "setting": "HepG2 cells [1]", "result": 21.13, "unit": "%"}, {"measurement": "apoptosis total", "setting": "HepG2 cells [1]", "result": 31.28, "unit": "%"}, {"measurement": "necrosis", "setting": "HepG2 cells [1]", "result": 2.72, "unit": "%"}, {"measurement": "IC50", "setting": "MCF-7", "result": "8.19 ± 0.62", "unit": "µM"}, {"measurement": "%G0-G1", "setting": "HepG2 cells [2]", "result": 48.26, "unit": "%"}, {"measurement": "%G2/M", "setting": "HepG2 cells [2]", "result": 21.46, "unit": "%"}, {"measurement": "%Pre-G1", "setting": "HepG2 cells [2]", "result": 31.28, "unit": "%"}, {"measurement": "%S", "setting": "HepG2 cells [2]", "result": 30.28, "unit": "%"}, {"measurement": "IC50", "setting": "HCT-116", "result": "6.74 ± 0.4", "unit": "µM"}, {"measurement": "IC50", "setting": "HepG-2", "result": "7.52 ± 0.31", "unit": "µM"}]}, {"smiles": "CNC(=O)c1cc(Oc2ccc(NC(=O)Nc3ccc(Cl)c(C(F)(F)F)c3)cc2)ccn1", "note": "[sorafenib]", "values": [{"measurement": "IC50", "setting": "MCF-7", "result": "6.72 ± 0.16", "unit": "µM"}, {"measurement": "IC50", "setting": "HCT-116", "result": "9.3 ± 0.2", "unit": "µM"}, {"measurement": "IC50", "setting": "HepG-2", "result": "7.4 ± 0.25", "unit": "µM"}, {"measurement": "IC50", "setting": "WI-38", "result": "35.71 ± 0.013", "unit": "µM"}]}, {"smiles": "CCN(CC)C(=S)N/N=C(\\C)c1ccc(S(=O)(=O)N2CCC(C)CC2)cc1", "note": "[Compound 5, (E)-N,N-Diethyl-2-(1-(4-((4-methylpiperidin-1-yl)sulfonyl)phenyl)ethylidene)hydrazine-1-carbothioamide]", "values": [{"measurement": "IC50", "setting": "MCF-7", "result": "18.4 ± 0.85", "unit": "µM"}, {"measurement": "IC50", "setting": "HCT-116", "result": "15.1 ± 0.75", "unit": "µM"}, {"measurement": "IC50", "setting": "HepG-2", "result": "10.7 ± 0.63", "unit": "µM"}]}]}
